Experimental data as given in US20070197658A1, “Polyamines and their use as antibacterial and sensitizing agents” (priority 2006, published 2007).
“And” between values parts separate entries of the source, which are not always exact repeats. Equal values may be shown once. Where a name gives a salt, the structure may show the parent alone. Read-outs that look alike come from different tables or passages of the source. Bridge positions count the residues as written; N and C are the ends. Square brackets hold non-standard residues; d marks the D form. Peptide text beside a SMILES is read from it. Dab = NCC[C@H](N)C(=O)O

Key:
E. coli ATCC 9637 [1] = experiment: microbe, parasite or virus in culture
Description: (§1) An equal volume of a suspension of either E. coli ATCC 9637 (FIG. 6A) or S. aureus ATCC 13709 (FIG. 6B) in 2× Mueller-Hinton broth was added using an automated liquid dispensing system to a 384 well plate, and bacterial growth was measured by absorptimetry as described in Materials and Methods.
(§2) In this example, E. coli strain 9637 and S. aureus strain 13709 were procured from ATCC (Manassas, Va.). For IM permeability assays, E. coli ML-35 (ATCC 43827), a lactose permease-deficient strain with constitutive cytoplasmic β-galactosidase activity was used (26). Calcium chloride transformation of E. coli ML-35 was performed using the plasmid vector pBR322 (6), encoding tetracycline and ampicillin resistance genes (Promega, Madison, Wis.). The transformed strain, E. coli ML-35p, selected by ampicillin resistance, was utilized for the OM permeabilization assay. E. coli ML-35p was maintained on trypticase soy agar plates with 50 μg/ml of ampicillin.
(§3) Minimum inhibitory concentrations of the acylpolyamines were determined by broth microdilution method (1) as per NCCLS guidelines. Mid-log phase Mueller-Hinton broth (MHB; non-cation supplemented) cultures of organisms (40 μl; OD600nm adjusted to 0.5 AU, and diluted ten-fold) were added to equal volumes of two-fold serially diluted acylpolyamines in a 384-well microtiter plate with the help of a Biotek Precision 2000 automated microplate pipetting system. The MICs of rifampicin, polymyxin B (PMB), polymyxin B nonapeptide (PMBN), naphthylacetyl spermine trihydrochloride and methoctramine tetrahydrochloride (Sigma, St. Louis, Mo.) were included as reference compounds for comparison of activity. The microtiter plates were sealed and incubated overnight at 37° C. The plates were read at an absorbance of 600 nm. The lowest concentration of an agent inhibiting growth of the organisms was recorded as the MIC.

S. aureus ATCC 13709 = experiment: microbe, parasite or virus in culture
Description: as §1, §2, §3

E. coli W3110 = details: cited from earlier work
E. coli ATCC 9637 [2] = experiment: Effect of acylpolyamines on MIC of rifampicin (sensitization); type: cell-based, Escherichia coli; details: for Sensitization to Rifampin: E. coli strain 9637 preincubated with 10 μM of compound, MIC of rifampicin
Description: E. coli ATCC 9637 was seeded in MH broth in chequerboard format in a 384-well plate containing a constant concentration of compound and varying doses of rifampicin. Bacterial growth was monitored by turbidimetry at 600 nm. PMBN and melittin were used as positive controls. Wells containing no test-compound served as negative control. […] Fold sensitization was calculated as MICRifampicin alone/MICRifampicin+10μM Compound.
Perturbation of the outer membrane permeability barrier greatly sensitizes Gram negative organisms to otherwise impermeable hydrophobic solutes, rifampicin being a classic example To determine the effect of acylpolyamines on the MIC of hydrophobic antibiotic, rifampicin, E. coli strain 9637 was used. Overnight cultures of E. coli grown in MHB preincubated with 10 μM of acylpolyamines were added to serially diluted rifampicin in a 384-well microtiter plate. After incubation at 37° C. overnight, the MIC was determined. Controls included PMBN and melittin (positive) and rifampicin alone (negative). All experiments were run in triplicate.

human erythrocytes = details: for hemolytic activity in the presence of human serum albumin: physiological concentrations (~650 μM) of human serum albumin
Description: Melittin was used as a positive control.
Erythrocyte damage was measured using two different techniques. In the first, hemolysis was quantified using extremely diluted, aged human whole blood such that the effects of the compounds binding to plasma proteins would be negligible, and the hemolytic activity would be magnified because of increased osmotic fragility of the erythrocytes as a consequence of depleted Na^+ K^+ ATPase activity. […] Dilute erythrocyte suspensions were prepared by diluting one-week-old whole blood obtained by venipuncture from healthy human volunteers 1:1000 in isotonic (0.9 g/100 ml) saline solution to which was added graded doses of compound. […] The samples were therefore examined with a Beckman-Coulter Vi-Cell™ Cell Viability Analyzer (Beckman-Coulter, Hialeah, Fla.). This instrument implements an automated intravital trypan blue exclusion method using real-time automated video microscopy. Measurement parameters for erythrocytes were gated appropriately on control erythrocytes to specify thresholds of cell recognition and viability. Data on total number of cells/ml and viable cells/ml were collected through 50 captured images per sample with a counting accuracy of ±3%. In order to examine the effect of plasma proteins on the surface activity, some of the experiments were repeated in the presence of near-physiological concentrations of human serum albumin. […] The second method, consequently, was designed to examine the effects of the compounds on whole blood. […] After incubation at 37° C. for 30 min, the plates were centrifuged at 3000 RPM for 10 min, 80 μl of supernatants transferred to a fresh plate, and the amount of free hemoglobin released into the supernatant was quantified using absorptimetry at 570 nm.
The hemolysis induced by the compounds was quantified using an extremely dilute suspension of washed, aged human erythrocytes under protein-free conditions (isotonic saline). […]

[3] = system: E. coli ML-35p (OM) / E. coli ML-35 (IM); type: cell-based, Escherichia coli; details: nitrocefin and ONPG hydrolysis
Description: OM permeabilizing activity was determined using E. coli ML-35p (parent i^− z^+ y^− ATCC 43827 transformed with pBR322 vector encoding periplasmic β-lactamase); the leakage of periplasmic β-lactamase activity was quantified using nitrocefin as a chromogenic substrate. IM permeabilizing activity was determined using E. coli ML-35 using o-nitrophenyl-β-D-galactopyranoside as the substrate to determine the β-galactosidase activity. In all experiments, PMB, PMBN, and melittin were used as reference compounds.
Nitrocefin (Calbiochem, San Diego, Calif.) was used for the determination of periplasmic β-lactamase activity since PADAC has been reported to be frequently insensitive to β-lactamase activity in clinically relevant strains of Staphylococcus. […] Harvested mid-log phase cultures of E. coli ML-35p (OD600nm adjusted to 0.5 AU) grown in trypticase soy broth were washed thrice with normal saline (0.9%). Nitrocefin was added to a final concentration of 50 μg/ml to the washed bacterial suspension, which was then added to the serially diluted compounds in a 384-well microtiter plate as described earlier. […] After various times of incubation at 37° C., β-lactamase activity was measured spectrophotometrically at 486 nm using an automated Spectramax M2 instrument (Molecular Devices, Sunnyvale, Calif.).
The IM permeability was measured using o-nitrophenyl-β-D-galactopyranoside (“ONPG”; Sigma, St. Louis, Mo.) as the substrate to determine the β-galactosidase activity. […] Washed cultures of E coli ML-35 mixed with 1.5 mM of ONPG in normal saline (0.9%) were added to serially diluted compounds in a 384-well microtiter plate. PMBN and melittin were used as the controls. The production of o-nitrophenol was quantified absorptimetrically at 420 nm after an incubation period of 1 hour at 37° C.
OM and IM permeability were determined respectively from dose-response curves of nitrocefin and ONPG hydrolysis rates as described in Lehrer et al., Concurrent assessment of inner and outer membrane permeabilization and bacteriolysis in E. coli by multiple-wavelength spectrophotometry, J. Immunol.

[4] = 500 μM in 50 mM Tris buffer, pH 7.4, 5% DMSO, 25° C.
Description: Charged, amphipathic molecules are surface-active, and can be cytolytic to mammalian cells. […] Samples were at 500 μM concentration in 50 mM Tris buffer, pH 7.4 containing 5% DMSO. The instrument was calibrated with water at 25° C. (72 mN/m) and surface tension values were recorded over a range of bubble surface ages from 100 to 1500 ms at 25° C.

CF-1 mice = details: preliminary
Description: Detailed biophysical studies on the characterization of the binding site on albumin, stoichiometry, and dependence of binding affinity on mono-versus bis-acylation and acyl chain length will be published elsewhere.
Clinical signs of acute toxicity were monitored for 48 h following a single injection. In subacute studies, 100 μg of 4e was injected daily in the subcutaneous tissue of the flank region, the sites being alternated every day, for a duration of 15 days. The animals were monitored daily for signs of local irritation, weight loss, and food consumption.

[5] = E. coli ATCC 9637, Mueller-Hinton broth, overnight 37° C.
[6] = S. aureus ATCC 13709, Mueller-Hinton broth, overnight 37° C.
[7] = 10 μM compound, E. coli ATCC 9637

COc1ccccc1CNCCCCCCNCCCCCCCCNCCCCCCNCc1ccccc1OC [Methoctramine, methoctramine tetrahydrochloride, reference compound]
MIC (E. coli ATCC 9637 [1]; [5]): 312.5 µM
MIC (E. coli ATCC 9637 [1]; Escherichia coli, ATCC9637): 312 µM and 228 µg/mL
MIC (S. aureus ATCC 13709; Staphylococcus aureus, ATCC13709): 156 µM and 114 µg/mL
MIC reported by Yasuda et al. (E. coli W3110): 22 μM and 16 mg/l

CO[C@H]1/C=C/O[C@@]2(C)Oc3c(C)c(O)c4c(O)c(c(/C=N/N5CCN(C)CC5)c(O)c4c3C2=O)NC(=O)/C(C)=C\C=C\[C@H](C)[C@H](O)[C@@H](C)[C@@H](O)[C@@H](C)[C@H](OC(C)=O)[C@@H]1C [rifampicin, reference compound]
MIC (E. coli ATCC 9637 [2]; Escherichia coli, ATCC9637, E. coli ATCC 9637, no test compound, read-out: MIC of rifampicin alone): 15.6 µg/mL

CCCCCCCCCC(=O)NCCCNCCCNCCCCNCCCN.O=C(O)C(F)(F)F.O=C(O)C(F)(F)F.O=C(O)C(F)(F)F.O=C(O)C(F)(F)F [Compound 4c]
MIC (E. coli ATCC 9637 [1]; [5]): 62.5 μM and 54.3 μg/ml
MIC (S. aureus ATCC 13709; [6]): 62.5 μM and 54.3 μg/ml
Sensitization to Rifampin (E. coli ATCC 9637 [2]): 7.81

CCCCCCCCCCCCCCC(=O)NCCCNCCCNCCCCNCCCNCCCNC(=O)CCCCCCCCCCCCCC.O=C(O)C(F)(F)F.O=C(O)C(F)(F)F.O=C(O)C(F)(F)F.O=C(O)C(F)(F)F [Compound 8d]
MIC (E. coli ATCC 9637 [1]; [5]): 62.5 μM and 76.3 μg/ml
MIC (S. aureus ATCC 13709; [6]): 250 μM and 305.3 μg/ml
Sensitization to Rifampin (E. coli ATCC 9637 [2]): 15.6

CCCCCCCCCCCCCCCCCCC(=O)NCCCNCCCNCCCCNCCCN.O=C(O)C(F)(F)F.O=C(O)C(F)(F)F.O=C(O)C(F)(F)F.O=C(O)C(F)(F)F [Compound 4g]
MIC (E. coli ATCC 9637 [1]; [5]): 62.5 μM and 62.2 μg/ml
MIC (S. aureus ATCC 13709; [6]): 15.6 μM and 15.5 μg/ml
hemolytic activity in the presence of human serum albumin (human erythrocytes): completely abrogated
membrane-permeabilizing activity (OM and IM) [3]: highly membrane-active

CCCCCCCCCCCCCCCCC(=O)NCCCNCCCNCCCCNCCCNCCCNC(=O)CCCCCCCCCCCCCCCC.O=C(O)C(F)(F)F.O=C(O)C(F)(F)F.O=C(O)C(F)(F)F.O=C(O)C(F)(F)F [Compound 8e]
MIC (E. coli ATCC 9637 [1]; [5]): 62.5 μM and 79.4 μg/ml
MIC (S. aureus ATCC 13709; [6]): 250 μM and 319.3 μg/ml
Sensitization to Rifampin (E. coli ATCC 9637 [2]): 15.6

Cl.Cl.Cl.NCCCNCCCCNCCCNC(=O)Cc1cccc2ccccc12 [Naphthylacetylspermine, naphthylacetyl spermine trihydrochloride, reference compound]
MIC (E. coli ATCC 9637 [1]; E. coli ATCC 9637, Mueller-Hinton broth, overnight 37° C., listed as naphthylacetylspermine, trihydrochloride): 1250 µM
MIC (E. coli ATCC 9637 [1]; E. coli ATCC 9637, Mueller-Hinton broth, overnight 37° C., trihydrochloride): 1250 μM and 599.8 μg/ml
MIC (S. aureus ATCC 13709; S. aureus ATCC 13709, Mueller-Hinton broth, overnight 37° C., trihydrochloride): 1250 μM and 599.8 μg/ml
MIC reported by Yasuda et al. (E. coli W3110; trihydrochloride): > 267 μM and > 128 mg/l

CCCCCCCCC(=O)NCCCNCCCNCCCCNCCCN.O=C(O)C(F)(F)F.O=C(O)C(F)(F)F.O=C(O)C(F)(F)F.O=C(O)C(F)(F)F [Compound 4b]
MIC (E. coli ATCC 9637 [1]; [5]): 62.5 μM and 53.4 μg/ml
MIC (S. aureus ATCC 13709; [6]): 125 μM and 106.96 μg/ml
Sensitization to Rifampin (E. coli ATCC 9637 [2]): 7.81

CCCCCCCCCCCCCCCCCCC(=O)NCCCNCCCNCCCCNCCCNCCCNC(=O)CCCCCCCCCCCCCCCCCC.O=C(O)C(F)(F)F.O=C(O)C(F)(F)F.O=C(O)C(F)(F)F.O=C(O)C(F)(F)F [Compound 8f]
MIC (E. coli ATCC 9637 [1]; [5]): 62.5 μM and 83.3 μg/ml
MIC (S. aureus ATCC 13709; [6]): 125 μM and 166.7 μg/ml
Sensitization to Rifampin (E. coli ATCC 9637 [2]): 15.6

CCCCCCCCCC(=O)NCCCNCCCNCCCCNCCCNCCCNC(=O)CCCCCCCCC.O=C(O)C(F)(F)F.O=C(O)C(F)(F)F.O=C(O)C(F)(F)F.O=C(O)C(F)(F)F [Compound 8b]
MIC in the presence of human serum albumin (E. coli ATCC 9637 [1]; E. coli, HSA 4.5 g/100 ml, 677 μM): 125 µM
attenuation of MIC by human serum albumin (E. coli ATCC 9637 [1]; E. coli, with vs without HSA 4.5 g/100 ml): four-fold
MIC in the presence of human serum albumin (S. aureus ATCC 13709; S. aureus, HSA 4.5 g/100 ml, 677 μM): 15.6 µM
attenuation of MIC by human serum albumin (S. aureus ATCC 13709; S. aureus, with vs without HSA 4.5 g/100 ml): four-fold
sensitization activity (MIC rifampicin alone / MIC rifampicin + 10 μM compound) (E. coli ATCC 9637 [2]; [7]): 4096 fold
Sensitization to Rifampin (E. coli ATCC 9637 [2]): 0.00381
surface activity [4]: considerably surface active

CC(=O)NCCCNCCCNCCCCNCCCN.O=C(O)C(F)(F)F.O=C(O)C(F)(F)F.O=C(O)C(F)(F)F.O=C(O)C(F)(F)F [Compound 4a]
MIC (E. coli ATCC 9637 [1]; [5]): 62.5 μM and 47.3 μg/ml
Sensitization to Rifampin (E. coli ATCC 9637 [2]): 31.25

CCCCCCCCCCCCC(=O)NCCCNCCCNCCCCNCCCN.O=C(O)C(F)(F)F.O=C(O)C(F)(F)F.O=C(O)C(F)(F)F.O=C(O)C(F)(F)F [Compound 4d]
MIC (E. coli ATCC 9637 [1]; [5]): 31.25 μM and 28.9 μg/ml
MIC (S. aureus ATCC 13709; [6]): 15.6 μM and 14.4 μg/ml
Sensitization to Rifampin (E. coli ATCC 9637 [2]): 62.5
subacute toxicity (CF-1 mice; 100 μg/mouse, subcutaneously, for 15 days): not revealed any detectable toxicity
acute toxicity (CF-1 mice; up to 1 mg/mouse, one dose subcutaneously): not revealed any detectable toxicity

CC(C)C[C@@H]1NC(=O)[C@@H](Cc2ccccc2)NC(=O)[C@H](CCN)NC(=O)[C@@H](NC(=O)[C@H](CCN)NC(=O)[C@@H](N)[C@@H](C)O)CCNC(=O)[C@H]([C@@H](C)O)NC(=O)[C@H](CCN)NC(=O)[C@H](CCN)NC1=O [PMBN, polymyxin B nonapeptide, reference compound] (H-T[Dab][Dab][Dab][dF]L[Dab][Dab]T; lactam 3-C)
MIC (E. coli ATCC 9637 [1]; ATCC 9637): 250; (240.7) μM
MIC (E. coli ATCC 9637 [1]; [5]): 250; (240.7) μg/ml
MIC (S. aureus ATCC 13709; ATCC 13709): 500; (481.5) μM
MIC (S. aureus ATCC 13709; [6]): 500; (481.5) μg/ml
MIC of rifampicin in the presence of compound (E. coli ATCC 9637 [2]; [7]): 0.976 µg/mL
sensitization activity (MIC rifampicin alone / MIC rifampicin + 10 μM compound) (E. coli ATCC 9637 [2]; [7]): 16 fold

CCCCCCCCCCCCCCCCC(=O)NCCCNCCCNCCCCNCCCN.O=C(O)C(F)(F)F.O=C(O)C(F)(F)F.O=C(O)C(F)(F)F.O=C(O)C(F)(F)F [Compound 4f]
MIC (E. coli ATCC 9637 [1]; [5]): 62.5 μM and 60.4 μg/ml
MIC (S. aureus ATCC 13709; [6]): 15.6 μM and 15.1 μg/ml
Sensitization to Rifampin (E. coli ATCC 9637 [2]): 15.6
hemolysis (human erythrocytes; at 1-5 μM, dilute aged human erythrocytes, protein-free isotonic saline): 100%
hemolytic activity in the presence of human serum albumin (human erythrocytes): completely abrogated
membrane-permeabilizing activity (OM and IM) [3]: highly membrane-active

Polymyxin B [PMB, reference compound]
MIC (E. coli ATCC 9637 [1]; [5]): 3.9 μM and 5.4 μg/ml
MIC (S. aureus ATCC 13709; [6]): 125 μM and 173.2 μg/ml
Sensitization to Rifampin (E. coli ATCC 9637 [2]): 0.2
